{"source": "paper PMC11206519", "about": "“Multi-Endpoint Toxicological Assessment of Chrysin Loaded Oil-in-Water Emulsion System in Different Biological Models” (Nanomaterials, 2024)", "key": {"[1]": {"system": "RAW 264.7", "assay": "MTT cytotoxicity assay", "format": "cell-based, murine", "settings": "Mus musculus, RAW264.7, 48 h", "experimental": "(§1) RAW 264.7 (murine macrophage-like cell), 3T3-L1 adipocyte (murine adipocyte), HEK293 (human embryonic kidney cell), and LX-2 (human hepatic stellate cell) were obtained from American Type Culture Collection (ATCC, Manassas, VA, USA). RAW 264.7 macrophages were cultured as a suspension culture in an ultra-low attachment culture dish, whereas the others were cultured as adherent cells in a cell culture flask. The cells were grown in Dulbecco’s Modified Eagle Medium (DMEM) with L-glutamine, supplemented with 10% fetal bovine serum (FBS) (RAW 264.7, HEK293, and LX-2) or 10% fetal calf serum (FCS) (3T3-L1) and 1% penicillin under 5% CO2, at 37 °C. […] Blank-ES was used as a vehicle control. The amount of blank-ES was equal to chrysin-ES amount that was used for the treatment. The cytotoxicity of chrysin, chrysin-ES, and blank-ES in each cell was determined using an MTT assay. […] Then, the solution was gently removed, and the formazan crystal was dissolved with dimethyl sulfoxide (DMSO). The soluble formazan was measured using a microplate reader (Bio-TEK Synergy Hybrid Reader H4) at 540 nm. The cell viability is directly related to the absorbance of formazan. The percentage of cell viability was calculated using the following equation. Cell viability (%) = (Absorbance (sample))/(Absorbance (control)) × 100"}, "[2]": {"settings": "cited from earlier work"}, "[3]": {"system": "HEK-293", "assay": "MTT cytotoxicity assay", "format": "cell-based", "settings": "Homo sapiens, HEK293, 48 h", "experimental": "as §1"}, "[4]": {"system": "LX-2", "assay": "MTT cytotoxicity assay", "format": "cell-based", "settings": "Homo sapiens, LX-2, 48 h", "experimental": "as §1"}, "[5]": {"system": "3T3-L1", "assay": "MTT cytotoxicity assay", "format": "cell-based", "settings": "Mus musculus, 48 h", "experimental": "as §1"}, "[6]": {"system": "D. melanogaster trans-heterozygous mwh+/+flr3 larvae of the HB cross", "assay": "SMART wing spot test, mutagenicity, HB cross", "format": "in vivo, Drosophila melanogaster", "description": "The somatic mutation and recombination test, or the wing spot test, using D. melanogaster was employed as an in vivo system to assess the mutagenicity and anti-mutagenicity of chrysin-ES. Two different crosses were conducted: (i) a standard cross (ST) and (ii) a high bioactivation cross (HB) [18]. The standard cross larvae were obtained from virgin female of flr3/TM3, Ser crossed with males of mwh/mwh, while the HB cross larvae expressing cytochrome P450 enzymes involved in xenobiotic biotransformation were obtained from virgin females of ORR/ORR; flr^3/In (3LR) TM3, ri p^psep l (3)89Aa bx^34e e Bd^s crossed with males of mwh/mwh. The flies were cultured at a constant temperature of 25 ± 1 °C and 60–70% RH at photoperiod 12:12 (light/dark). To evaluate the mutagenicity of chrysin and chrysin-ES, a hundred larva F1 progenies derived from the above crossing were fed with instant Drosophila medium (Formula 4-24®), Carolina, Burlington, NC, USA) containing chrysin or chrysin-ES (20–120 µg/mL). DI was used as a negative control, while 20 mM urethane (URE) was used as a positive control. The larvae were reared on each medium until pupation at 25 °C. After that, forty wings of surviving flies in each group were collected for mutant analysis. The mutant spots on the wings, including small single spots, large single spots, and twin spots, were counted."}, "[7]": {"settings": "decreases cell viability by 20%"}, "[8]": {"settings": "decreases cell viability by 50%"}}, "data": [{"smiles": "O=c1cc(-c2ccccc2)oc2cc(O)cc(O)c12", "note": "[Chrysin, 5,7-dihydroxyflavone]", "values": [{"measurement": "IC20", "setting": "[1]; [7]", "value": "~43", "unit": "µM"}, {"measurement": "IC50", "setting": "[1]; [8]", "value": "~69", "unit": "µM"}, {"measurement": "chrysin uptake eliminated in the feces", "setting": "[2]", "value": 98, "unit": "%"}, {"measurement": "IC20", "setting": "[3]; [7]", "value": "~53", "unit": "µM"}, {"measurement": "IC50", "setting": "[3]; [8]", "value": "> 90", "unit": "µM"}, {"measurement": "IC20", "setting": "[4]; [7]", "value": "~52", "unit": "µM"}, {"measurement": "IC50", "setting": "[4]; [8]", "value": "> 90", "unit": "µM"}, {"measurement": "IC20", "setting": "[5]; [7]", "value": "> 90", "unit": "µM"}, {"measurement": "IC50", "setting": "[5]; [8]", "value": "> 90", "unit": "µM"}, {"measurement": "Mutant spots per individual (number of spots), Large Single", "setting": "[6]; 20 µg/mL", "value": "0.03 (1)"}, {"measurement": "Mutant spots per individual (number of spots), Total Spots", "setting": "[6]; 20 µg/mL", "value": "0.23 (9)"}, {"measurement": "Mutant spots per individual (number of spots), Twin", "setting": "[6]; 20 µg/mL", "value": "0.03 (1)"}, {"measurement": "Mutant spots per individual (number of spots), Large Single", "setting": "[6]; 40 µg/mL", "value": "0.03 (1)"}, {"measurement": "Mutant spots per individual (number of spots), Total Spots", "setting": "[6]; 40 µg/mL", "value": "0.15 (6)"}, {"measurement": "Mutant spots per individual (number of spots), Twin", "setting": "[6]; 40 µg/mL", "value": "0 (0)"}, {"measurement": "Mutant spots per individual (number of spots), Large Single", "setting": "[6]; 80 µg/mL", "value": "0.03 (1)"}, {"measurement": "Mutant spots per individual (number of spots), Total Spots", "setting": "[6]; 80 µg/mL", "value": "0.15 (6)"}, {"measurement": "Mutant spots per individual (number of spots), Twin", "setting": "[6]; 80 µg/mL", "value": "0 (0)"}, {"measurement": "Mutant spots per individual (number of spots), Large Single", "setting": "[6]; 120 µg/mL", "value": "0 (0)"}, {"measurement": "Mutant spots per individual (number of spots), Small Single", "setting": "[6]; 120 µg/mL", "value": "0.08 (3)"}, {"measurement": "Mutant spots per individual (number of spots), Total Spots", "setting": "[6]; 120 µg/mL", "value": "0.08 (3)"}, {"measurement": "Mutant spots per individual (number of spots), Twin", "setting": "[6]; 120 µg/mL", "value": "0 (0)"}, {"measurement": "Statistical diagnosis, Small Single", "setting": "[6]; 120 µg/mL, vs DI", "value": "−"}, {"measurement": "Statistical diagnosis, Total Spots", "setting": "[6]; 120 µg/mL, vs DI", "value": "−"}]}]}
